Patent US12728177B2, “Disinfectant composition with rapid antiviral efficacy” (priority 2015, dated 2026)
Where a name gives a salt, the structure may show the parent alone.

Tested on: Bacteriophage Phi X174 (ATCC 13706-81)
Assay: Virucidal infectivity (percent reduction in virus infectivity, E. coli outgrowth with resazurin dye);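 note: exposed phage diluted into broth, E. coli outgrowth followed 16-24 h at 37 °C by fluorescence rate, unexposed phage set as 100% signal, phage-free as 0%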
Conditions: 10-minute exposure
[1] = secondary agent 3 mM + Maleic Acid 3 mM
[2] = secondary agent 3 mM + Phosphonc Acid 50-150 mM
[3] = secondary agent 3 mM + Sulfosuccinic Acid 10-32 mM
[4] = secondary agent 9 mM + Maleic Acid 3 mM
[5] = secondary agent 9 mM + Phosphonc Acid 50-150 mM
[6] = secondary agent 9 mM + Sulfosuccinic Acid 10-32 mM
[7] = secondary agent 28 mM + Maleic Acid 3 mM
[8] = secondary agent 28 mM + Phosphonc Acid 50-150 mM
[9] = secondary agent 28 mM + Sulfosuccinic Acid 10-32 mM
[10] = secondary agent 85 mM + Maleic Acid 3 mM
[11] = secondary agent 85 mM + Phosphonc Acid 50-150 mM
[12] = secondary agent 85 mM + Sulfosuccinic Acid 10-32 mM

Experimental: Bacteriophage Phi X174 (ATCC 13706-81) was added 1:10 (−108 plaque forming units (PFU) per sample) into a solution containing the composition of interest. Following a 10-minute exposure, the sample was transferred 1:10 into Tryptic Soy Broth (TSB). Following 10 minutes in TSB, a second 1:10 dilution was completed into an outgrowth solution for the Phi X174 host (E. coli ATCC 13706) that contained TSB and a resazurin dye. E. coli outgrowth was then monitored at 37° C. for 16-24 hours and the rate of fluorescence development was calculated. The rate observed when Phi X174 was not exposed to any composition represented a 100% Phi X174 signal. The rate observed without Phi X174 present represented a “0% signal.” The rate obtained following Phi X174 exposure to a given composition was compared to the signal obtained with no exposure to calculate the “percent reduction in virus infectivity.”

## N=C(N)NN [Aminoguanidine Hydrochloride]
Agent alone 6 mM
  % Reduction, Secondary Antiviral Agent Alone: 2%
Agent alone 18 mM
  % Reduction, Secondary Antiviral Agent Alone: 7%
Agent alone 53 mM
  % Reduction, Secondary Antiviral Agent Alone: 4%
Agent alone 158 mM
  % Reduction, Secondary Antiviral Agent Alone: 1%
[1]
  reduction in virus infectivity, in Combination with Maleic Acid (3 mM): 12%
[2]
  reduction in virus infectivity, in Combination with Phosphonc Acid (50-150 mM): 50%
[3]
  reduction in virus infectivity, in Combination with Sulfosuccinic Acid (10-32 mM): 0%
[4]
  reduction in virus infectivity, in Combination with Maleic Acid (3 mM): 4%
[5]
  reduction in virus infectivity, in Combination with Phosphonc Acid (50-150 mM): 86%
[6]
  reduction in virus infectivity, in Combination with Sulfosuccinic Acid (10-32 mM): 0%
[7]
  reduction in virus infectivity, in Combination with Maleic Acid (3 mM): 0%
[8]
  reduction in virus infectivity, in Combination with Phosphonc Acid (50-150 mM): 50%
[9]
  reduction in virus infectivity, in Combination with Sulfosuccinic Acid (10-32 mM): 4%
[10]
  reduction in virus infectivity, in Combination with Maleic Acid (3 mM): 0%
[11]
  reduction in virus infectivity, in Combination with Phosphonc Acid (50-150 mM): 99%
[12]
  reduction in virus infectivity, in Combination with Sulfosuccinic Acid (10-32 mM): 13%

## [Cl][Cu][Cl] [Copper (II) Chionde]
Agent alone 1 mM
  % Reduction, Secondary Antiviral Agent Alone: 20%
Agent alone 4 mM
  % Reduction, Secondary Antiviral Agent Alone: 18%
Agent alone 9 mM
  % Reduction, Secondary Antiviral Agent Alone: 23%
Agent alone 27 mM
  % Reduction, Secondary Antiviral Agent Alone: 99%
Secondary agent 26 mM + Maleic Acid 3 mM
  reduction in virus infectivity, in Combination with Maleic Acid (3 mM): 70%
Secondary agent 26 mM + Phosphonc Acid 50-150 mM
  reduction in virus infectivity, in Combination with Phosphonc Acid (50-150 mM): 99%
Secondary agent 26 mM + Sulfosuccinic Acid 10-32 mM
  reduction in virus infectivity, in Combination with Sulfosuccinic Acid (10-32 mM): 99%
Secondary agent 1-3 mM + Maleic Acid 3 mM
  reduction in virus infectivity, in Combination with Maleic Acid (3 mM): 72%
Secondary agent 1-3 mM + Phosphonc Acid 50-150 mM
  reduction in virus infectivity, in Combination with Phosphonc Acid (50-150 mM): 44%
Secondary agent 1-3 mM + Sulfosuccinic Acid 10-32 mM
  reduction in virus infectivity, in Combination with Sulfosuccinic Acid (10-32 mM): 94%
Secondary agent 4-6 mM + Maleic Acid 3 mM
  reduction in virus infectivity, in Combination with Maleic Acid (3 mM): 57%
Secondary agent 4-6 mM + Phosphonc Acid 50-150 mM
  reduction in virus infectivity, in Combination with Phosphonc Acid (50-150 mM): 87%
Secondary agent 4-6 mM + Sulfosuccinic Acid 10-32 mM
  reduction in virus infectivity, in Combination with Sulfosuccinic Acid (10-32 mM): 96%
Secondary agent 11-13 mM + Maleic Acid 3 mM
  reduction in virus infectivity, in Combination with Maleic Acid (3 mM): 38%
Secondary agent 11-13 mM + Phosphonc Acid 50-150 mM
  reduction in virus infectivity, in Combination with Phosphonc Acid (50-150 mM): 80%
Secondary agent 11-13 mM + Sulfosuccinic Acid 10-32 mM
  reduction in virus infectivity, in Combination with Sulfosuccinic Acid (10-32 mM): 99%

## CCCCCCCCCCO[C@@H]1O[C@H](CO)[C@@H](O)[C@H](O)[C@H]1O [EcoSense 3000, Decyl Glucoside]
Agent alone 8 mM
  % Reduction, Secondary Antiviral Agent Alone: 14%
Agent alone 23 mM
  % Reduction, Secondary Antiviral Agent Alone: 0%
Agent alone 69 mM
  % Reduction, Secondary Antiviral Agent Alone: 0%
Agent alone 207 mM
  % Reduction, Secondary Antiviral Agent Alone: 0%
Secondary agent 0.3 mM + Maleic Acid 3 mM
  reduction in virus infectivity, in Combination with Maleic Acid (3 mM): 0%
Secondary agent 1 mM + Maleic Acid 3 mM
  reduction in virus infectivity, in Combination with Maleic Acid (3 mM): 0%
Secondary agent 7 mM + Maleic Acid 3 mM
  reduction in virus infectivity, in Combination with Maleic Acid (3 mM): 0%
Secondary agent 37 mM + Maleic Acid 3 mM
  reduction in virus infectivity, in Combination with Maleic Acid (3 mM): 0%

## N=C(N)N [Guanidine Hydrochloride]
Agent alone 6 mM
  % Reduction, Secondary Antiviral Agent Alone: 0%
Agent alone 18 mM
  % Reduction, Secondary Antiviral Agent Alone: 0%
Agent alone 55 mM
  % Reduction, Secondary Antiviral Agent Alone: 0%
Agent alone 164 mM
  % Reduction, Secondary Antiviral Agent Alone: 0%
[1]
  reduction in virus infectivity, in Combination with Maleic Acid (3 mM): 0%
[2]
  reduction in virus infectivity, in Combination with Phosphonc Acid (50-150 mM): 40%
[3]
  reduction in virus infectivity, in Combination with Sulfosuccinic Acid (10-32 mM): 10%
Secondary agent 10 mM + Maleic Acid 3 mM
  reduction in virus infectivity, in Combination with Maleic Acid (3 mM): 0%
Secondary agent 10 mM + Phosphonc Acid 50-150 mM
  reduction in virus infectivity, in Combination with Phosphonc Acid (50-150 mM): 34%
Secondary agent 10 mM + Sulfosuccinic Acid 10-32 mM
  reduction in virus infectivity, in Combination with Sulfosuccinic Acid (10-32 mM): 12%
Secondary agent 29 mM + Maleic Acid 3 mM
  reduction in virus infectivity, in Combination with Maleic Acid (3 mM): 0%
Secondary agent 29 mM + Phosphonc Acid 50-150 mM
  reduction in virus infectivity, in Combination with Phosphonc Acid (50-150 mM): 34%
Secondary agent 29 mM + Sulfosuccinic Acid 10-32 mM
  reduction in virus infectivity, in Combination with Sulfosuccinic Acid (10-32 mM): 1%
Secondary agent 86 mM + Maleic Acid 3 mM
  reduction in virus infectivity, in Combination with Maleic Acid (3 mM): 0%
Secondary agent 86 mM + Phosphonc Acid 50-150 mM
  reduction in virus infectivity, in Combination with Phosphonc Acid (50-150 mM): 46%
Secondary agent 86 mM + Sulfosuccinic Acid 10-32 mM
  reduction in virus infectivity, in Combination with Sulfosuccinic Acid (10-32 mM): 0%

## CCCCCCCC/C=C\CCCCCCCC(=O)N(C)CCS(=O)(=O)[O-].[Na+] [Hostapon TPHC, Sodium Methyl Oleoyl Taurate]
Agent alone 25 mM
  % Reduction, Secondary Antiviral Agent Alone: 0%
Agent alone 42 mM
  % Reduction, Secondary Antiviral Agent Alone: 0%
Agent alone 50 mM
  % Reduction, Secondary Antiviral Agent Alone: 0%
Agent alone 67 mM
  % Reduction, Secondary Antiviral Agent Alone: 0%
Secondary agent 25 mM + Maleic Acid 3 mM
  reduction in virus infectivity, in Combination with Maleic Acid (3 mM): 0%
Secondary agent 25 mM + Phosphonc Acid 50-150 mM
  reduction in virus infectivity, in Combination with Phosphonc Acid (50-150 mM): 99%
Secondary agent 25 mM + Sulfosuccinic Acid 10-32 mM
  reduction in virus infectivity, in Combination with Sulfosuccinic Acid (10-32 mM): 99%
Secondary agent 42 mM + Maleic Acid 3 mM
  reduction in virus infectivity, in Combination with Maleic Acid (3 mM): 0%
Secondary agent 42 mM + Phosphonc Acid 50-150 mM
  reduction in virus infectivity, in Combination with Phosphonc Acid (50-150 mM): 96%
Secondary agent 42 mM + Sulfosuccinic Acid 10-32 mM
  reduction in virus infectivity, in Combination with Sulfosuccinic Acid (10-32 mM): 88%
Secondary agent 50 mM + Maleic Acid 3 mM
  reduction in virus infectivity, in Combination with Maleic Acid (3 mM): 0%
Secondary agent 50 mM + Phosphonc Acid 50-150 mM
  reduction in virus infectivity, in Combination with Phosphonc Acid (50-150 mM): 99%
Secondary agent 50 mM + Sulfosuccinic Acid 10-32 mM
  reduction in virus infectivity, in Combination with Sulfosuccinic Acid (10-32 mM): 50%
Secondary agent 67 mM + Maleic Acid 3 mM
  reduction in virus infectivity, in Combination with Maleic Acid (3 mM): 0%
Secondary agent 67 mM + Phosphonc Acid 50-150 mM
  reduction in virus infectivity, in Combination with Phosphonc Acid (50-150 mM): 99%
Secondary agent 67 mM + Sulfosuccinic Acid 10-32 mM
  reduction in virus infectivity, in Combination with Sulfosuccinic Acid (10-32 mM): 1%

## CCCCCCCCCC[N+](C)(C)[O-] [Mackamine C-10, Decylamina oxide]
Agent alone 6 mM
  % Reduction, Secondary Antiviral Agent Alone: 7%
Agent alone 18 mM
  % Reduction, Secondary Antiviral Agent Alone: 4%
Agent alone 53 mM
  % Reduction, Secondary Antiviral Agent Alone: 11%
Agent alone 183 mM
  % Reduction, Secondary Antiviral Agent Alone: 30%
Secondary agent 30 mM + Maleic Acid 3 mM
  reduction in virus infectivity, in Combination with Maleic Acid (3 mM): 10%
Secondary agent 30 mM + Phosphonc Acid 50-150 mM
  reduction in virus infectivity, in Combination with Phosphonc Acid (50-150 mM): 0%
Secondary agent 30 mM + Sulfosuccinic Acid 10-32 mM
  reduction in virus infectivity, in Combination with Sulfosuccinic Acid (10-32 mM): 6%
Secondary agent 49 mM + Maleic Acid 3 mM
  reduction in virus infectivity, in Combination with Maleic Acid (3 mM): 35%
Secondary agent 49 mM + Phosphonc Acid 50-150 mM
  reduction in virus infectivity, in Combination with Phosphonc Acid (50-150 mM): 0%
Secondary agent 49 mM + Sulfosuccinic Acid 10-32 mM
  reduction in virus infectivity, in Combination with Sulfosuccinic Acid (10-32 mM): 0%
Secondary agent 59 mM + Maleic Acid 3 mM
  reduction in virus infectivity, in Combination with Maleic Acid (3 mM): 64%
Secondary agent 59 mM + Phosphonc Acid 50-150 mM
  reduction in virus infectivity, in Combination with Phosphonc Acid (50-150 mM): 0%
Secondary agent 59 mM + Sulfosuccinic Acid 10-32 mM
  reduction in virus infectivity, in Combination with Sulfosuccinic Acid (10-32 mM): 2%
Secondary agent 79 mM + Maleic Acid 3 mM
  reduction in virus infectivity, in Combination with Maleic Acid (3 mM): 62%
Secondary agent 79 mM + Phosphonc Acid 50-150 mM
  reduction in virus infectivity, in Combination with Phosphonc Acid (50-150 mM): 0%
Secondary agent 79 mM + Sulfosuccinic Acid 10-32 mM
  reduction in virus infectivity, in Combination with Sulfosuccinic Acid (10-32 mM): 0%

## O=C(O)/C=C\C(=O)O [Maleic Acid]
Maleic Acid 3 mM, no secondary agent
  reduction in virus infectivity, Primary Antiviral Agent without secondary agent (None): 1-8%

## NC(N)=O [Urea]
Agent alone 7 mM
  % Reduction, Secondary Antiviral Agent Alone: 0%
Agent alone 20 mM
  % Reduction, Secondary Antiviral Agent Alone: 0%
Agent alone 60 mM
  % Reduction, Secondary Antiviral Agent Alone: 0%
Agent alone 180 mM
  % Reduction, Secondary Antiviral Agent Alone: 0%
[1]
  reduction in virus infectivity, in Combination with Maleic Acid (3 mM): 8%
[2]
  reduction in virus infectivity, in Combination with Phosphonc Acid (50-150 mM): 57%
[3]
  reduction in virus infectivity, in Combination with Sulfosuccinic Acid (10-32 mM): 1%
[4]
  reduction in virus infectivity, in Combination with Maleic Acid (3 mM): 6%
[5]
  reduction in virus infectivity, in Combination with Phosphonc Acid (50-150 mM): 71%
[6]
  reduction in virus infectivity, in Combination with Sulfosuccinic Acid (10-32 mM): 0%
[7]
  reduction in virus infectivity, in Combination with Maleic Acid (3 mM): 1%
[8]
  reduction in virus infectivity, in Combination with Phosphonc Acid (50-150 mM): 53%
[9]
  reduction in virus infectivity, in Combination with Sulfosuccinic Acid (10-32 mM): 25%
[10]
  reduction in virus infectivity, in Combination with Maleic Acid (3 mM): 0%
[11]
  reduction in virus infectivity, in Combination with Phosphonc Acid (50-150 mM): 56%
[12]
  reduction in virus infectivity, in Combination with Sulfosuccinic Acid (10-32 mM): 0%
